Measured values as given in PubChem BioAssay (NCI).
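Assay format: 96-well plates, 48-hour exposure. TGI is the concentration that stops growth completely.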

Experiments:
Test in all cases: NCI tumour cell line growth inhibition, 48 h
SK-MEL-28 melanoma = test system: SK-MEL-28 melanoma
T-47D breast = test system: T-47D breast
SW-620 colon = test system: SW-620 colon
SF-539 CNS = test system: SF-539 CNS
DU-145 prostate = test system: DU-145 prostate
A498 renal = test system: A498 renal
HOP-62 NSCLC = test system: HOP-62 NSCLC
COLO 205 colon = test system: COLO 205 colon
RXF 393 renal = test system: RXF 393 renal
OVCAR-3 ovarian = test system: OVCAR-3 ovarian
OVCAR-5 ovarian = test system: OVCAR-5 ovarian
HOP-92 NSCLC = test system: HOP-92 NSCLC
NCI-H522 lung = test system: NCI-H522 lung
EKVX NSCLC = test system: EKVX NSCLC
U251 CNS = test system: U251 CNS
HCT-116 colon = test system: HCT-116 colon
OVCAR-4 ovarian = test system: OVCAR-4 ovarian
IGROV1 ovarian = test system: IGROV1 ovarian
MDA-MB-435 = test system: MDA-MB-435
MOLT-4 leukemia = test system: MOLT-4 leukemia

| SMILES | TGI (SK-MEL-28 melanoma) [µM] | TGI (T-47D breast) [µM] | TGI (SW-620 colon) [µM] | TGI (SF-539 CNS) [µM] | TGI (DU-145 prostate) [µM] | TGI (A498 renal) [µM] | TGI (HOP-62 NSCLC) [µM] | TGI (COLO 205 colon) [µM] | TGI (RXF 393 renal) [µM] | TGI (OVCAR-3 ovarian) [µM] | TGI (OVCAR-5 ovarian) [µM] | TGI (HOP-92 NSCLC) [µM] | TGI (NCI-H522 lung) [µM] | TGI (EKVX NSCLC) [µM] | TGI (U251 CNS) [µM] | TGI (HCT-116 colon) [µM] | TGI (OVCAR-4 ovarian) [µM] | TGI (IGROV1 ovarian) [µM] | TGI (MDA-MB-435) [µM] | TGI (MOLT-4 leukemia) [µM] |
| --- | --- | --- | --- | --- | --- | --- | --- | --- | --- | --- | --- | --- | --- | --- | --- | --- | --- | --- | --- | --- |
| C1CCCCC2(CCCCCCCCC3(CCC1)OCCO3)OCCO2 | > 100 | > 100 | > 100 | > 100 | > 100 | > 100 | > 100 | > 100 | > 100 | > 100 | > 100 | > 100 | > 100 | > 100 | > 100 | > 100 | > 100 | > 100 | > 100 |  |
| CCCCN1CN2C(=O)C(C(=O)OCC)C(=O)c3sc4nc(SC)nc1c4c32 (stereo not drawn) | 34 | 42.7 | 35.6 | 33.8 | 35.4 | 16.8 | 30.5 | 35.5 | 38.5 | 34.6 | 32.6 | 30.5 | 35.4 | 32.2 | 33.7 | 30.6 | 33.4 | 33.5 | 34 | 66.3 |
| CCCCCCCCCCCCCCCCCCN(C)C(COC)COP(=O)([O-])OCC[N+](C)(C)C (stereo not drawn) | 36.7 | 34.1 | 21.2 | 19 | 24.5 | 34.1 | 12.1 | 3.22 | 3.12 | 22.4 | 6.32 | 5.17 | 10.7 | 34.2 | 4.2 | 17 | 12.3 | 3.27 | 33.9 | 4.28 |
| C1CSCCSCCSCCSC1 | > 100 | > 100 | > 100 | > 100 | > 100 | > 100 | > 100 | > 100 | > 100 | > 100 | > 100 | > 100 | > 100 | > 100 | > 100 | > 100 | > 100 | > 100 | > 100 | > 100 |
| CN(C)CCCn1c(Cc2ccc(Cl)cc2)nc2cc(C(F)(F)F)ccc21 | 33.5 | 27.2 | > 57.8 | 32.2 | 27.2 | 25.5 | 28.8 | 29.3 | 22.7 | 27.6 | 32.5 | 22.9 | 28.1 | 32.7 | 28.6 | 25 | 27.6 | 27.3 | 26.6 | 34.5 |
| CC[C@@H]1C(=O)OC[C@@H]1Cc1cncn1C | > 100 | > 100 | > 100 | > 100 | > 100 | > 100 | > 100 | > 100 | > 100 | > 100 | > 100 | > 100 | > 100 | > 100 | > 100 | > 100 | > 100 | > 100 | > 100 | > 100 |
| O=C1c2ccccc2CN1c1ccc(OCCN2CCCCC2)cc1 | > 10 | > 10 | > 10 | > 10 | > 10 | > 10 | > 10 | > 10 | > 10 | > 10 | > 10 | > 10 | > 10 | > 10 | > 10 | > 10 | > 10 | > 10 | > 10 | > 10 |
| CC1=NN(c2cccc(Cl)c2)C2(SCC(=O)N2c2nc3ccccc3s2)/C1=C\c1ccc(N(C)C)cc1 (stereo not drawn) | > 100 | > 100 | > 100 | > 100 | > 100 | 87.9 | 48.6 |  | 44.8 | > 100 | > 100 | 79.9 | > 100 | > 100 | > 100 | > 100 | > 100 | > 100 | > 100 | > 100 |
| COc1cccc2c1CCc1cc3c(N)nc(N)nc3nc1-2 | 11 | > 67.7 | 25 | 9.16 | 23.8 | 32.9 | 20.1 | 29.8 | 26.4 | 16 | 21.3 | 32.6 | 10.8 | 15.3 | > 38.3 | 8.09 | 32.5 | 17.2 | 27.4 | > 100 |
| CCCSc1ccc2[nH]c(/N=C/c3ccccc3)cc2c1 | 90.7 | > 100 | > 100 | 46.3 | > 100 | 60.1 |  | 44.5 | 42.7 | 60.3 | > 100 | 76.9 | 46.2 | 76.2 |  | 39.8 | 88.2 | > 100 | > 100 | 55.9 |
| CSC1=Nc2ccccc2-c2nc3ccccc3cc2C1 | > 100 | > 100 |  | > 100 | > 100 | > 100 | > 100 | > 100 | > 100 | > 100 | > 100 | > 100 | > 100 | > 100 | > 100 | > 100 | > 100 | > 100 | > 100 | > 100 |
| CCC(C(=O)C(=O)C(CC)P1(=O)OC(C)(C)CN1C(C)(C)C)P1(=O)OC(C)(C)CN1C(C)(C)C (stereo not drawn) | > 100 | > 100 | > 100 | > 100 | > 100 | > 100 | > 100 | > 100 | > 100 | > 100 |  | > 100 | > 100 | > 100 | > 100 | > 100 |  | > 100 | > 100 | 82.3 |
